Laboratory results taken from patent US20230312550A1, “N-(2-(4-CYANOTHIAZOLIDIN-3-YL)-2-OXOETHYL)-QUINOLINE-4-CARBOXAMIDES” (AstraZeneca AB, priority 2020, published 2023).
≈ marks a conversion by molar mass, not a printed value.

How the values were obtained:
[1] = molecular target: hFAP (M39-A757) (Homo sapiens (Human), UniProt Q12884); test: hFAP binding assay (surface plasmon resonance); conditions: SPR, 20° C.; for hFAP Binding assay k(off) / hFAP Binding assay k(on): single cycle kinetics; for Kd: n = 1 or geometric mean n = 2-4
Sequence of hFAP (M39-A757) (Q12884 39-757): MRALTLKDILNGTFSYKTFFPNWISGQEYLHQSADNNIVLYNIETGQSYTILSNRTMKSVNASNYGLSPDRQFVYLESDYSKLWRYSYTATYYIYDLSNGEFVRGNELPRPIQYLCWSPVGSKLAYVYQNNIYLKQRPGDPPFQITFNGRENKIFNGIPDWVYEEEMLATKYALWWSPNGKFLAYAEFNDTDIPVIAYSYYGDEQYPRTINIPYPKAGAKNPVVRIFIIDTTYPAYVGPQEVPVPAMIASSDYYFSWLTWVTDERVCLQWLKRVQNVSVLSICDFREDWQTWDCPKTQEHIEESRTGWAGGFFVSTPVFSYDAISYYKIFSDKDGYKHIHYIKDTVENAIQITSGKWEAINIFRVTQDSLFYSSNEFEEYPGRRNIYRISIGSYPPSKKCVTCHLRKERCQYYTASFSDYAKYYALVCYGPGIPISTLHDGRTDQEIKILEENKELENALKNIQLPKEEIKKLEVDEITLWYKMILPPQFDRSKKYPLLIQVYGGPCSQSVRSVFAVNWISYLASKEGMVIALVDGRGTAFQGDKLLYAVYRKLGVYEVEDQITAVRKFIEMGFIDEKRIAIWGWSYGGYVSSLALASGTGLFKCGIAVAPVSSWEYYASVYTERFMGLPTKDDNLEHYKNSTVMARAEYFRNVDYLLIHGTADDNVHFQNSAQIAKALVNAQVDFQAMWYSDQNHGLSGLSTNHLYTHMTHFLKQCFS
Description: Compounds were tested in a direct binding assay using 8K surface plasmon resonance biosensor (GE Healthcare) at 20° C. Immobilization of hFAP (M39-A757) on a CMD200M sensor chip (Xantec) was performed using standard amine coupling procedure in immobilization buffer (10 mM HEPES, 150 mM NaCl, 0.05% Tween20, pH 7.4). The surface was washed with 10 mM NaOH, 1M NaCl before being activated with EDC/NHS (GE Healthcare), followed by immobilization of hFAP (in 10 mM Acetate pH 5.0). Finally, the surface was deactivated by ethanolamine. Immobilization levels of hFAP were around 4000-6000 RU. The reference spot was treated as described, omitting the injection of hFAP. Compound concentration series were injected over the immobilized protein in increasing concentrations (2-500 nM) using single cycle kinetics in running buffer (20 mM TRIS, 150 mM NaCl, 0.05% Tween20, 1% DMSO, pH 7.4). Interaction models were fitted globally to the experimental traces, enabling determination of kon, koff and Kd.

[2] = Caco-2 cell permeability; conditions: human
Description: Caco-2 cell permeability was measured as described in Mol Pharm 2017, 14, 1601.

[3] = Metabolic stability in human liver microsomes (HLM); conditions: human, HLM CLint, n = 1 or average of n = 2-3
Description: Metabolic stability in HLM was measured as described in J Comput Aided Mol Des 2015, 29, 795.

[4] = molecular target: human Fibroblast activation protein alpha (hFAP) (Homo sapiens (Human), UniProt Q12884); test: hFAP inhibition assay (tight binders); type: biochemical; conditions: Ala-Pro-AMC 20 μM, n = 1 or geometric mean n = 2-6; note: hFAP 2.4 pM
Sequence of human Fibroblast activation protein alpha (hFAP) (Q12884 38-760): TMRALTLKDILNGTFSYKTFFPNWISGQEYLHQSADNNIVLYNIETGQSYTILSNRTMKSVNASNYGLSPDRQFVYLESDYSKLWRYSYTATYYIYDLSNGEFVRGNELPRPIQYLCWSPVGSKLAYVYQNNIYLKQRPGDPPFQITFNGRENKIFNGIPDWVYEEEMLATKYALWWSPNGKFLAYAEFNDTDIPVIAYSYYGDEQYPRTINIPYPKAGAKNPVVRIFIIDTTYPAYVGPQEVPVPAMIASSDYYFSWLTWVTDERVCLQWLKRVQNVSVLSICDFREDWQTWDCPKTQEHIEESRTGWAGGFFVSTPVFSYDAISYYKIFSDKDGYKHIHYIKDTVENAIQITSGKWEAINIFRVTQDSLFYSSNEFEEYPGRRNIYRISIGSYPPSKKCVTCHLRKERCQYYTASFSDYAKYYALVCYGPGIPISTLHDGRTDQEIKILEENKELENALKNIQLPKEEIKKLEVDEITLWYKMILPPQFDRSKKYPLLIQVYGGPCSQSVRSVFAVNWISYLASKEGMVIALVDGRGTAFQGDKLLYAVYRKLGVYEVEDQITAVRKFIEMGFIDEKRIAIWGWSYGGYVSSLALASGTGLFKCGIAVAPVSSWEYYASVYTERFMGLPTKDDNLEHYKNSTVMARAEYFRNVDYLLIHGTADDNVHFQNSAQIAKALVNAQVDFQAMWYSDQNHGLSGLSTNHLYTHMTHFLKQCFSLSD
Description: The plates were read on a PHERAstar® reader with excitation 340 nm and emission 460 nm. Data were analyzed in Genedata Screener®. IC50 values were determined by plotting % inhibition versus log compound concentration and using a one site dose response model.

[5] = Kinetic solubility; conditions: kinetic from dmso stock, Solubility, kinetic solubility; n = 1 or average of n = 2-3
Description: Kinetic solubility was measured as described in Comput Aided Mol Des 2015, 29, 795.

[6] = Metabolic stability in rat hepatocytes (rHep); conditions: n = 1 or geometric mean of n = 2-3
[7] = molecular target: Prolyl endopeptidase, Prolyl Oligopeptidase (hPREP) (Homo sapiens (Human), UniProt P48147); test: hPrep inhibition assay; type: biochemical; conditions: hPREP 0.6 nM, Z-Gly-Pro-amino-methylcoumarin 50 μM; read-out: PREP IC50
Sequence of Prolyl endopeptidase, Prolyl Oligopeptidase (hPREP) (P48147 whole entry): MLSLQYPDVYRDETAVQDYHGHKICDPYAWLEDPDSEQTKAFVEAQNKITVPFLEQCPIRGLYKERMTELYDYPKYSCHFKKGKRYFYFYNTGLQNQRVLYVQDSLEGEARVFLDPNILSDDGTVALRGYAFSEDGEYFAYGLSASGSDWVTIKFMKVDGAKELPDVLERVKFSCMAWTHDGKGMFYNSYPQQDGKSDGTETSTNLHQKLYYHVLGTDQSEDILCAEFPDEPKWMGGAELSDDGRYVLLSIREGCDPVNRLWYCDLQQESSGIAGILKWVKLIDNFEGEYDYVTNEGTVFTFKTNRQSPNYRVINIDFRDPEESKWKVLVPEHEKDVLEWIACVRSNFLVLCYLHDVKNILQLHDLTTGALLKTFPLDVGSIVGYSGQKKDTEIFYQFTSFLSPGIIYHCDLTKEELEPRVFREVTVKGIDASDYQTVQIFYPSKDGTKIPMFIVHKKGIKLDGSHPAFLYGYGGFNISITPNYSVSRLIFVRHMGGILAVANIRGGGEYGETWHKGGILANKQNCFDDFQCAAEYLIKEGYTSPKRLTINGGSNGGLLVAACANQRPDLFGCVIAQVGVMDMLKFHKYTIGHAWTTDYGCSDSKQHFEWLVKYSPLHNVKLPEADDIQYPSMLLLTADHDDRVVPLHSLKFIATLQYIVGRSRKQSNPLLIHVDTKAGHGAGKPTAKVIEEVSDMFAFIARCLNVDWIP
Procedure, shortened: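 Recombinant human PREP at 0.6 nM final with Z-Gly-Pro-AMC substrate at 50 μM final in Tris-HCl pH 7.5, NaCl, Triton X-100, glutathione; 15 min rt preincubation then 20 min rt reaction in dark. AMC fluorescence (ex 340/em 460 nm); IC50 from one-site dose-response fit of % inhibition.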

Compound: C[C@@H]1CN(c2ccc3nccc(C(=O)NCC(=O)N4CSC[C@H]4C#N)c3c2)C[C@H](C)[C@@H]1O [Example 7, N-(2-((R)-4-Cyanothiazolidin-3-yl)-2-oxoethyl)-6-((3S,4S,5R)-4-hydroxy-3,5-dimethylpiperidin-1-yl)quinoline-4-carboxamide]
- hFAP Binding assay k(off) [1]: 0.000075 s⁻¹
- hFAP Binding assay k(on) [1]: 740000 M⁻¹ s⁻¹
- Kd [1]: 0.1 nM
- Papp A→B [2]: 0.34 ×10⁻⁶ cm/s
- Papp B→A [2]: 20 ×10⁻⁶ cm/s
- efflux ratio [2]: 59
- microsomal CLint [3]: 31 µL/min/mg
- IC50 [4]: 0.16 nM
- solubility [5]: > 1000 µM
- rHep CLint [6]: 2.6 μL/min/1E6
- IC50 [7]: 510 nM

Compound: CC1(C)CCCN(c2ccc3nccc(C(=O)NCC(=O)N4CSC[C@H]4C#N)c3c2)C1=O [Example 15, (R)—N-(2-(4-Cyanothiazolidin-3-yl)-2-oxoethyl)-6-(3,3-dimethyl-2-oxopiperidin-1-yl)quinoline-4-carboxamide]
- hFAP Binding assay k(off) [1]: 0.000046 s⁻¹
- hFAP Binding assay k(on) [1]: 490000 M⁻¹ s⁻¹
- Kd [1]: 0.11 nM
- Papp A→B [2]: 0.3 ×10⁻⁶ cm/s
- Papp B→A [2]: 13 ×10⁻⁶ cm/s
- efflux ratio [2]: 45
- microsomal CLint [3]: 43 µL/min/mg
- IC50 [4]: 0.12 nM
- solubility [5]: 890 µM (≈ 402 µg/mL)
- rHep CLint [6]: 11 μL/min/1E6
- IC50 [7]: 2100 nM

Compound: CC1(O)CCN(c2ccc3nccc(C(=O)NCC(=O)N4CSC[C@H]4C#N)c3c2)CC1 [Example 190, (R)—N-(2-(4-Cyanothiazolidin-3-yl)-2-oxoethyl)-6-(4-hydroxy-4-methyl-piperidin-1-yl)quinoline-4-carboxamide]
- hFAP Binding assay k(off) [1]: 0.000036 s⁻¹
- hFAP Binding assay k(on) [1]: 1800000 M⁻¹ s⁻¹
- Kd [1]: 0.02 nM
- Papp A→B [2]: 0.32 ×10⁻⁶ cm/s
- Papp B→A [2]: 7.6 ×10⁻⁶ cm/s
- efflux ratio [2]: 24
- microsomal CLint [3]: < 3 µL/min/mg
- IC50 [4]: 0.069 nM
- solubility [5]: > 1000 µM
- rHep CLint [6]: <1 μL/min/1E6
- IC50 [7]: 690 nM

Compound: COC[C@@H]1[C@@H](C)OCCN1c1ccc2nccc(C(=O)NCC(=O)N3CSC[C@H]3C#N)c2c1 [Example 97, N-(2-((R)-4-Cyanothiazolidin-3-yl)-2-oxoethyl)-6-((2R,3R)-3-(methoxymethyl)-2-methylmorpholino)quinoline-4-carboxamide]
- hFAP Binding assay k(off) [1]: 0.000076 s⁻¹
- hFAP Binding assay k(on) [1]: 690000 M⁻¹ s⁻¹
- Kd [1]: 0.11 nM
- Papp A→B [2]: 0.52 ×10⁻⁶ cm/s
- Papp B→A [2]: 23 ×10⁻⁶ cm/s
- efflux ratio [2]: 45
- microsomal CLint [3]: 32 µL/min/mg
- IC50 [4]: 0.23 nM
- solubility [5]: 950 µM (≈ 446 µg/mL)
- rHep CLint [6]: 19 μL/min/1E6
- IC50 [7]: 890 nM

Compound: C[C@@H]1CCN(c2ccc3nccc(C(=O)NCC(=O)N4CSC[C@H]4C#N)c3c2)C1=O (single isomer, unassigned) [Example 202, N-(2-((R)-4-Cyanothiazolidin-3-yl)-2-oxoethyl)-6-((R*)-3-methyl-2-oxopyrrolidin-1-yl)quinoline-4-carboxamide]
- hFAP Binding assay k(off) [1]: 0.000070 s⁻¹
- hFAP Binding assay k(on) [1]: 1600000 M⁻¹ s⁻¹
- Kd [1]: 0.043 nM
- Papp [2]: 5.2 ×10⁻⁶ cm/s
- microsomal CLint [3]: 7.7 µL/min/mg
- IC50 [4]: 0.044 nM
- solubility [5]: 140 µM (≈ 59.3 µg/mL)
- rHep CLint [6]: <1 μL/min/1E6
- IC50 [7]: 550 nM

Compound: C[C@]1(F)CCN(c2ccc3nccc(C(=O)NCC(=O)N4CSC[C@H]4C#N)c3c2)C1 (mixture of isomers) [Example 198, N-(2-((R)-4-Cyanothiazolidin-3-yl)-2-oxoethyl)-6-((RS)-3-fluoro-3-methylpyrrolidin-1-yl)quinoline-4-carboxamide]
- hFAP Binding assay k(off) [1]: 0.00011 s⁻¹
- hFAP Binding assay k(on) [1]: 2900000 M⁻¹ s⁻¹
- Kd [1]: 0.038 nM
- Papp A→B [2]: 3.4 ×10⁻⁶ cm/s
- Papp B→A [2]: 36 ×10⁻⁶ cm/s
- efflux ratio [2]: 11
- microsomal CLint [3]: 20 µL/min/mg
- IC50 [4]: 0.056 nM
- solubility [5]: 38 µM
- rHep CLint [6]: 22 μL/min/1E6
- IC50 [7]: 410 nM

Compound: COC[C@@H]1CN(c2ccc3nccc(C(=O)NCC(=O)N4CSC[C@H]4C#N)c3c2)CCO1 [Example 93, N-(2-((R)-4-Cyanothiazolidin-3-yl)-2-oxoethyl)-6-((S)-2-(methoxymethyl)-morpholino)quinoline-4-carboxamide]
- hFAP Binding assay k(off) [1]: 0.000080 s⁻¹
- hFAP Binding assay k(on) [1]: 1800000 M⁻¹ s⁻¹
- Kd [1]: 0.047 nM
- Papp A→B [2]: 0.33 ×10⁻⁶ cm/s
- Papp B→A [2]: 17 ×10⁻⁶ cm/s
- efflux ratio [2]: 50
- microsomal CLint [3]: < 3 µL/min/mg
- IC50 [4]: 0.091 nM
- solubility [5]: 300 µM (≈ 137 µg/mL)
- rHep CLint [6]: 2.6 μL/min/1E6
- IC50 [7]: 1900 nM

Compound: C[C@H]1CCN(c2ccc3nccc(C(=O)NCC(=O)N4CSC[C@H]4C#N)c3c2)C1=O (single isomer, unassigned) [Example 201, N-(2-((R)-4-Cyanothiazolidin-3-yl)-2-oxoethyl)-6-((R*)-3-methyl-2-oxopyrrolidin-1-yl)quinoline-4-carboxamide]
- hFAP Binding assay k(off) [1]: 0.00010 s⁻¹
- hFAP Binding assay k(on) [1]: 1800000 M⁻¹ s⁻¹
- Kd [1]: 0.059 nM
- Papp [2]: 4.8 ×10⁻⁶ cm/s
- microsomal CLint [3]: < 3 µL/min/mg
- IC50 [4]: < 0.025 nM
- solubility [5]: 90 µM (≈ 38.1 µg/mL)
- rHep CLint [6]: <1 μL/min/1E6
- IC50 [7]: 610 nM

Compound: CCC1(O)CCN(c2ccc3nccc(C(=O)NCC(=O)N4CSC[C@H]4C#N)c3c2)CC1 [Example 189, (R)—N-(2-(4-Cyanothiazolidin-3-yl)-2-oxoethyl)-6-(4-ethyl-4-hydroxy-piperidin-1-yl)quinoline-4-carboxamide]
- hFAP Binding assay k(off) [1]: 0.000051 s⁻¹
- hFAP Binding assay k(on) [1]: 2600000 M⁻¹ s⁻¹
- Kd [1]: 0.02 nM
- Papp A→B [2]: 0.29 ×10⁻⁶ cm/s
- Papp B→A [2]: 13 ×10⁻⁶ cm/s
- efflux ratio [2]: 46
- microsomal CLint [3]: 11 µL/min/mg
- IC50 [4]: 0.056 nM
- solubility [5]: 840 µM (≈ 381 µg/mL)
- rHep CLint [6]: <1 μL/min/1E6
- IC50 [7]: 440 nM

Compound: N#C[C@@H]1CSCN1C(=O)CNC(=O)c1ccnc2ccc(N3CCOC(F)(F)C3)cc12 [Example 4, (R)—N-(2-(4-Cyanothiazolidin-3-yl)-2-oxoethyl)-6-(2,2-difluoromorpholino)-quinoline-4-carboxamide]
- hFAP Binding assay k(off) [1]: 0.000094 s⁻¹
- hFAP Binding assay k(on) [1]: 1200000 M⁻¹ s⁻¹
- Kd [1]: 0.079 nM
- Papp A→B [2]: 1.6 ×10⁻⁶ cm/s
- Papp B→A [2]: 28 ×10⁻⁶ cm/s
- efflux ratio [2]: 18
- microsomal CLint [3]: 50 µL/min/mg
- IC50 [4]: 0.058 nM
- solubility [5]: 55 µM (≈ 24.6 µg/mL)
- rHep CLint [6]: 14 μL/min/1E6
- IC50 [7]: 1100 nM

Compound: N#C[C@@H]1CSCN1C(=O)CNC(=O)c1ccnc2ccc(N3CCCCC3=O)cc12 [Example 14, (R)—N-(2-(4-Cyanothiazolidin-3-yl)-2-oxoethyl)-6-(2-oxopiperidin-1-yl)-quinoline-4-carboxamide]
- hFAP Binding assay k(off) [1]: 0.000064 s⁻¹
- hFAP Binding assay k(on) [1]: 1300000 M⁻¹ s⁻¹
- Kd [1]: 0.05 nM
- Papp A→B [2]: 0.15 ×10⁻⁶ cm/s
- Papp B→A [2]: 2.4 ×10⁻⁶ cm/s
- efflux ratio [2]: 16
- microsomal CLint [3]: < 3 µL/min/mg
- IC50 [4]: 0.08 nM
- solubility [5]: 830 µM (≈ 352 µg/mL)
- rHep CLint [6]: <1 μL/min/1E6
- IC50 [7]: 1200 nM

Compound: CC1(O)CN(c2ccc3nccc(C(=O)NCC(=O)N4CSC[C@H]4C#N)c3c2)C1 [Example 165, (R)—N-(2-(4-Cyanothiazolidin-3-yl)-2-oxoethyl)-6-(3-hydroxy-3-methyl-azetidin-1-yl)quinoline-4-carboxamide]
- hFAP Binding assay k(off) [1]: 0.000063 s⁻¹
- hFAP Binding assay k(on) [1]: 1200000 M⁻¹ s⁻¹
- Kd [1]: 0.051 nM
- Papp [2]: 0.51 ×10⁻⁶ cm/s
- microsomal CLint [3]: < 3 µL/min/mg
- IC50 [4]: 0.32 nM
- solubility [5]: > 1000 µM
- rHep CLint [6]: <1 μL/min/1E6
- IC50 [7]: 670 nM
